Consider 25 molecules from patent US12116358B2, “Substituted indoles and methods of use thereof” (EPIZYME, INC., priority 2018, dated 2024).

SMILES strings stand for the structures.

The first experiment concerns the target T1, SETD2(1434-1711) (Homo sapiens, UniProt Q9BYW2).
T1 construct: SETD2 (1434-1711) Assay; catalogue N/A
T1 sequence (Q9BYW2 1434-1711): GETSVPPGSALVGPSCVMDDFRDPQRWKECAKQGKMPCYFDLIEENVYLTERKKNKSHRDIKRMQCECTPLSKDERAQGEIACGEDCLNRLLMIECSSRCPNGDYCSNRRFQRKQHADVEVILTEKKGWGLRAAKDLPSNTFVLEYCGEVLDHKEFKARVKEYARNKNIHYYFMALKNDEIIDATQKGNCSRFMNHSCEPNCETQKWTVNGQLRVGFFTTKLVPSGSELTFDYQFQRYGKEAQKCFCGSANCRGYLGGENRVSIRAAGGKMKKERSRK
The experiment in a line: SETD2 (1434-1711) assay. In kind it is biochemical. Particulars: read-out: SETD2 (1434-1711).
Consider `Cc1ccc(F)c2cc(C(=O)NC3CCCC(N4CCN(C(=O)CO)C(C(F)(F)F)C4)C3)[nH]c12` (centres unmarked) [compound 1174], for which the IC50 amounted to 4800 nM.
Still for that read-out and setting: for `CC(=O)N1CCN(c2cccc(NC(=O)c3cc4c(F)ccc(C)c4[nH]3)c2F)CC1` [compound 52] the value was 70 nM; for `CNC(=NC#N)N1CCN(C2CCCC(NC(=O)c3cc4c(F)ccc(C)c4[nH]3)C2)CC1` (centres unmarked) [compound 1152], 1100 nM.
`Cc1ccc(F)c2cc(C(=O)Nc3cccc(N4CCN(c5ccccc5)CC4)c3)[nH]c12` [compound 312]: the IC50 came out at 800 nM.
Turning to `CCC1CN(C2CCCC(NC(=O)c3cc4c(F)ccc(C)c4[nH]3)C2)CCN1C(C)=O` (centres unmarked) [compound 1055], the IC50 was determined as 9 nM.
With `Cc1ccc(F)c2cc(C(=O)N[C@@H]3CCC[C@@H](N4CCC(=O)N(C)CC4)C3)[nH]c12` [compound 945], the IC50 was determined as 100 nM.
Regarding `CC(=O)N1CCN(c2cccc(NC(=O)c3cc4c(F)ccc(C)c4[nH]3)c2)CC1CC(C)C` (centres unmarked) [compound 193], the IC50 was 100 nM.
In the case of `Cc1ccc(F)c2cc(C(=O)Nc3cccc(-c4ccc5cncn5c4)c3)[nH]c12` [compound 278], the IC50 turned out to be 70 nM.
Take `Cc1ccc(F)c2cc(C(=O)N[C@@H]3CCC[C@H](N4CCN(C)C(=O)C4C)C3)[nH]c12` (some centres unmarked) [compound 884]: the IC50 was determined as 100 nM.
As for `COCCN1CCC2(CC1)CN(c1cccc(NC(=O)c3cc4c(F)ccc(C)c4[nH]3)c1)C2` [compound 109], the IC50 was 10 nM.
`Cc1ccc(F)c2cc(C(=O)NC3CCCC(N4CCN(C5CC5)C(=O)C4)C3)[nH]c12` (centres unmarked) [compound 978]: the IC50 came to 2300 nM.
On to `Cc1cc(C(=O)NC2CCC(N)C2)cnc1C(NC(=O)c1cc2cccc(C)c2[nH]1)C1CC1` (centres unmarked) [compound 516], for which the IC50 amounted to 400 nM.
Take `Cc1ccc(F)c2cc(C(=O)N[C@@H]3CCCC(N4CCC5(CC4)CNC(=O)C5)C3)[nH]c12` (some centres unmarked) [compound 896]: the IC50 amounted to 100 nM.
Regarding `Cc1cccc2cc(C(=O)NC3CC(=O)NCC(c4ccccc4)C3)[nH]c12` (centres unmarked) [compound 617], the IC50 was greater than 200000 nM.
For the molecule `Cc1ccc(F)c2cc(C(=O)Nc3cc(F)cc(N4C[C@H]5CCN(C)[C@H]5C4)c3)[nH]c12` [compound 122], the IC50 turned out to be 10 nM.
As to `Cc1ccc(F)c2cc(C(=O)Nc3cccc(-c4ncn5ccccc45)c3)[nH]c12` [compound 299], the IC50 was 200 nM.
For `COC(=O)CC(NC(=O)c1cc2cccc(C)c2[nH]1)c1ccccc1F` (centres unmarked) [compound 556], the IC50 amounted to 9900 nM.
Regarding `Cc1ccc(F)c2cc(C(=O)N[C@@H]3CCC[C@@H](N4CCC(N(C)C(=O)CN(C)C)C4)C3)[nH]c12` (some centres unmarked) [compound 909], the IC50 stood at 4700 nM.
Same read-out and setting: for `Cc1ccc(F)c2cc(C(=O)NC3CCCC(N4CCC(N(C)C(=O)C(C)C)C4)C3)[nH]c12` (centres unmarked) [compound 970] the value was 5000 nM; for `COC(=O)N1CCC2(CC1)CCN(c1cccc(NC(=O)c3cc4c(F)ccc(C)c4[nH]3)c1)C2` [compound 83], 20 nM.
Consider `Cc1ccc(F)c2cc(C(=O)Nc3cc(F)cc([C@H]4CC[C@@H](N5CCOCC5)CC4)c3)[nH]c12` [compound 35], for which the IC50 is 6 nM.
For the molecule `Cc1ccc(F)c2cc(C(=O)Nc3cccc(N4CCC(N)CC4)c3)[nH]c12` [compound 192], the IC50 was 30 nM.
`CCC(=O)N1CCN(C2CCCC(NC(=O)c3cc4c(F)ccc(C)c4[nH]3)C2)CC1C(F)(F)F` (centres unmarked) [compound 1168]: the IC50 worked out at 1300 nM.
As for `Cc1ccc(F)c2cc(C(=O)NC3CCCC(N4CCN(C(=O)C(C)C)C(C(F)(F)F)C4)C3)[nH]c12` (centres unmarked) [compound 1172], the IC50 stood at 3100 nM.
Regarding `Cc1ccc(F)c2cc(C(=O)Nc3cccc(N4CCN(C(=O)OC(C)(C)C)CC4)c3)[nH]c12` [compound 260], the IC50 came to 200 nM.

A further experiment has as its system H3K36me3 in A549 cells. Description: In-Cell Western (ICW) assay of SETD2 inhibitors (A549 assay). In kind it is cell-based, human. Particulars: A549 cells; read-out: SETD2 A549. The procedure, abridged:
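A549 cells seeded at 4,000/well onto compound and incubated 3 days at 37° C. Methanol-fixed cells stained overnight at 4° C with anti-H3K36me3 (1:1000), then IRDye 800CW secondary with DRAQ5 DNA counterstain. Plates read by Licor imaging at 700 and 800 channels.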
Take `Cc1ccc(F)c2cc(C(=O)NC3CCCC(N4CCN(C(=O)CO)C(C(F)(F)F)C4)C3)[nH]c12` (centres unmarked) [compound 1174]: the IC50 was greater than 2000 nM.
Turning to `CC(=O)N1CCN(c2cccc(NC(=O)c3cc4c(F)ccc(C)c4[nH]3)c2F)CC1` [compound 52], the IC50 was determined as 100 nM.
As to `CNC(=NC#N)N1CCN(C2CCCC(NC(=O)c3cc4c(F)ccc(C)c4[nH]3)C2)CC1` (centres unmarked) [compound 1152], the IC50 is greater than 2000 nM.
Turning to `CCC1CN(C2CCCC(NC(=O)c3cc4c(F)ccc(C)c4[nH]3)C2)CCN1C(C)=O` (centres unmarked) [compound 1055], the IC50 was 5 nM.
On the same count and under the same terms, for `Cc1ccc(F)c2cc(C(=O)N[C@@H]3CCC[C@@H](N4CCC(=O)N(C)CC4)C3)[nH]c12` [compound 945] the value was greater than 2000 nM; for `Cc1ccc(F)c2cc(C(=O)Nc3cccc(-c4ccc5cncn5c4)c3)[nH]c12` [compound 278], 900 nM.
In the case of `COCCN1CCC2(CC1)CN(c1cccc(NC(=O)c3cc4c(F)ccc(C)c4[nH]3)c1)C2` [compound 109], the IC50 came out at 200 nM.
Take `Cc1ccc(F)c2cc(C(=O)NC3CCCC(N4CCN(C5CC5)C(=O)C4)C3)[nH]c12` (centres unmarked) [compound 978]: the IC50 was greater than 2000 nM.
Same read-out and setting: for `Cc1cc(C(=O)NC2CCC(N)C2)cnc1C(NC(=O)c1cc2cccc(C)c2[nH]1)C1CC1` (centres unmarked) [compound 516] the value was 18500 nM.
Same read-out and setting: for `Cc1cccc2cc(C(=O)NC3CC(=O)NCC(c4ccccc4)C3)[nH]c12` (centres unmarked) [compound 617] the value was greater than 25000 nM.
For the molecule `COC(=O)CC(NC(=O)c1cc2cccc(C)c2[nH]1)c1ccccc1F` (centres unmarked) [compound 556], the IC50 was greater than 25000 nM.
As to `Cc1ccc(F)c2cc(C(=O)NC3CCCC(N4CCC(N(C)C(=O)C(C)C)C4)C3)[nH]c12` (centres unmarked) [compound 970], the IC50 is greater than 2000 nM.
Same read-out and setting: for `COC(=O)N1CCC2(CC1)CCN(c1cccc(NC(=O)c3cc4c(F)ccc(C)c4[nH]3)c1)C2` [compound 83] the value was 200 nM.
On to `CCC(=O)N1CCN(C2CCCC(NC(=O)c3cc4c(F)ccc(C)c4[nH]3)C2)CC1C(F)(F)F` (centres unmarked) [compound 1168], for which the IC50 is greater than 2000 nM.
For `Cc1ccc(F)c2cc(C(=O)NC3CCCC(N4CCN(C(=O)C(C)C)C(C(F)(F)F)C4)C3)[nH]c12` (centres unmarked) [compound 1172], the IC50 was greater than 2000 nM.

The same experiment, now with this note: Homo sapiens; A549 cells; read-out: SETD2 A549.
On to `Cc1ccc(F)c2cc(C(=O)Nc3cccc(N4CCN(c5ccccc5)CC4)c3)[nH]c12` [compound 312], for which the IC50 came to 1300 nM.
Take `CC(=O)N1CCN(c2cccc(NC(=O)c3cc4c(F)ccc(C)c4[nH]3)c2)CC1CC(C)C` (centres unmarked) [compound 193]: the IC50 came out at 400 nM.
With `Cc1ccc(F)c2cc(C(=O)N[C@@H]3CCC[C@H](N4CCN(C)C(=O)C4C)C3)[nH]c12` (some centres unmarked) [compound 884], the IC50 was 200 nM.
In the case of `Cc1ccc(F)c2cc(C(=O)N[C@@H]3CCCC(N4CCC5(CC4)CNC(=O)C5)C3)[nH]c12` (some centres unmarked) [compound 896], the IC50 worked out at 1800 nM.
For `Cc1ccc(F)c2cc(C(=O)Nc3cc(F)cc(N4C[C@H]5CCN(C)[C@H]5C4)c3)[nH]c12` [compound 122], the IC50 was determined as 300 nM.
Still for that read-out and setting: for `Cc1ccc(F)c2cc(C(=O)Nc3cccc(-c4ncn5ccccc45)c3)[nH]c12` [compound 299] the value was 1100 nM; for `Cc1ccc(F)c2cc(C(=O)N[C@@H]3CCC[C@@H](N4CCC(N(C)C(=O)CN(C)C)C4)C3)[nH]c12` (some centres unmarked) [compound 909], greater than 2000 nM; for `Cc1ccc(F)c2cc(C(=O)Nc3cc(F)cc([C@H]4CC[C@@H](N5CCOCC5)CC4)c3)[nH]c12` [compound 35], 80 nM.
With `Cc1ccc(F)c2cc(C(=O)Nc3cccc(N4CCC(N)CC4)c3)[nH]c12` [compound 192], the IC50 was 400 nM.
For the molecule `Cc1ccc(F)c2cc(C(=O)Nc3cccc(N4CCN(C(=O)OC(C)(C)C)CC4)c3)[nH]c12` [compound 260], the IC50 is 700 nM.
